Measured values as given in PubChem BioAssay (NCI).
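The compound was tested at five concentrations on cells cultured in 96-well plates, with a 48-hour exposure period. Abbreviation: GI50, concentration required for 50% inhibition of growth. TGI marks complete inhibition of growth.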 Where a SMILES comes first, the peptide text is derived from it. The star is where a group is joined. Cbz = O=C(OCc1ccccc1)*

How the values were obtained:
Assay in all cases: NCI-60 cell line screen, 48 h
CCRF-CEM leukemia = system: CCRF-CEM leukemia
MCF7 breast = system: MCF7 breast
SN12C renal = system: SN12C renal
OVCAR-4 ovarian = system: OVCAR-4 ovarian
U251 CNS = system: U251 CNS
K-562 leukemia = system: K-562 leukemia
HCT-116 colon = system: HCT-116 colon
UO-31 renal = system: UO-31 renal
TK-10 renal = system: TK-10 renal
SF-539 CNS = system: SF-539 CNS

Row | SMILES | GI50 (CCRF-CEM leukemia) [µM] | TGI (CCRF-CEM leukemia) [µM] | GI50 (MCF7 breast) [µM] | TGI (MCF7 breast) [µM] | GI50 (SN12C renal) [µM] | TGI (SN12C renal) [µM] | GI50 (OVCAR-4 ovarian) [µM] | TGI (OVCAR-4 ovarian) [µM] | GI50 (U251 CNS) [µM] | TGI (U251 CNS) [µM] | TGI (K-562 leukemia) [µM] | TGI (HCT-116 colon) [µM] | TGI (UO-31 renal) [µM] | TGI (TK-10 renal) [µM] | TGI (SF-539 CNS) [µM]
1 | COc1ccc(-c2nc(-c3nc4cc(Cl)c(Cl)cc4[nH]3)c3ccccn23)cc1 | > 100 | > 100 | 7.2 | > 100 | > 100 | > 100 | 2 | 4.9 | 3.05 | > 100 |  |  |  |  | 
2 | CN(C(=O)Cc1cc(Cl)c(Cl)cc1NC(=O)CCCN)[C@H]1CCCC[C@@H]1N1CCCC1 |  |  |  | 44.2 |  | > 100 |  | > 100 |  | 35.3 | > 100 | > 100 | > 100 | > 100 | 
3 | Cc1ccc2[nH]c3c(c2c1)C1CCC(C(C)(C)C)CC1C1C(=O)N(c2ccc(Oc4ccccc4)cc2)C(=O)C31 (configuration not stated) |  | 8.26 |  | > 100 |  | 37 |  | 42.6 |  | 21.6 | 31.3 | > 100 | > 100 | 84.4 | 
4 | C[C@]12C(=O)OC[C@H](c3ccccc3)N1C(=O)N(Cc1ccccc1)[C@@H]2CO |  | > 100 |  | > 100 |  | > 100 |  | > 100 |  |  | > 100 | > 100 | > 100 | > 100 | > 100
5 | CN1CCN(c2n[nH]c(=O)c3c2nnn3Cc2ccccc2)CC1 |  | > 100 |  | > 100 |  | > 100 |  | > 100 |  | > 100 | > 100 | > 100 | > 100 | > 100 | 
6 | CCOC(=O)CCC(NC(=O)C(CC(=O)OC)NC(=O)OCc1ccccc1)C(=O)NC(CC(=O)OC)C(=O)NC(CCC(=O)OCC)C(=O)NC(CC(=O)OC)C(=O)NC(CCC(=O)OCC)C(=O)NC(CC(=O)OCC)C(=O)OCC (configuration not stated) (Cbz-D(OMe)E(OEt)D(OMe)E(OEt)D(OMe)E(OEt)D(OEt)-OEt; configuration not given here) |  | > 100 |  | > 100 |  | > 100 |  | > 100 |  | > 100 | > 100 | > 100 | > 100 | > 100 | 
7 | CC(C)NC1CCCCC2c3ccccc3C12O (configuration not stated) |  | > 100 |  |  |  | > 100 |  | > 100 |  | > 100 | > 100 | > 100 | > 100 | > 100 | 
8 | O=C1c2cccnc2S(=O)(=O)N1c1ccc(Br)cc1 |  | > 100 |  |  |  | > 100 |  | > 100 |  | > 100 | > 100 | > 100 | > 100 | > 100 | 
9 | CCOC(=O)N1CCC2(CC1)C[C@](Sc1ccccc1)(C(C)=O)[C@H](C)O2 |  | > 100 |  | > 100 |  |  |  | > 100 |  | > 100 | > 100 |  | > 100 | > 100 | > 100
10 | C#CCOC(=O)C=[N+]=[N-] |  | > 10 |  | > 10 |  | > 10 |  |  |  | > 10 | > 10 | > 10 | > 10 |  | > 10
11 | [N-]=[N+]=NC1C(Cl)C(=O)NC(=O)N1[C@H]1C[C@H](O)[C@@H](CO)O1 (some centres not stated) | 26.3 | > 100 |  |  |  | > 100 |  | > 100 |  | > 100 | > 100 |  | > 100 | > 100 | > 100
12 | Cc1cc2c3c(c1)S(=O)(=O)c1cc(Cl)ccc1N3CCC2 |  | > 100 |  | > 100 |  | > 100 |  | > 100 |  |  | > 100 | > 100 | > 100 | > 100 | > 100
13 | CCN(CC)c1c(-c2c(OC(C)C)c(=O)c2=O)c(=O)n2ccsc2c1OC(C)=O |  | > 100 |  |  |  | > 100 |  | > 100 |  | > 100 | > 100 | > 100 | > 100 | > 100 | 
14 | O=NN(CC1(O)OCC(O)C(O)C1O)C(Cc1c[nH]c2ccccc12)C(=O)O (configuration not stated) |  | > 100 |  |  |  |  |  |  |  | > 100 | > 100 | > 100 |  | > 100 | > 100
15 | COC(=O)c1sc2nc(Nc3ccccc3)c(=Nc3ccccc3)sc2c1C |  | > 100 |  |  |  | > 100 |  | > 100 |  | > 100 | > 100 | > 100 | > 100 | > 100 | > 100
16 | Cc1cnoc1/N=C1\C=C(Nc2oncc2C)C(=O)c2ccccc21 |  | > 100 |  |  |  | > 100 |  | > 100 |  | > 100 | > 100 | > 100 | > 100 | > 100 | > 100
17 | C[C@]12CCC(=O)C=C1CC[C@@H]1[C@@H]2CC[C@]2(C)C(=O)/C(=C/c3ccc([N+](=O)[O-])cc3)C[C@@H]12 |  | > 100 |  | 23.5 |  | > 100 |  |  |  |  | > 100 | > 100 | > 100 | > 100 | > 100
18 | Nc1nc(N)c2cc(-c3cc4ccccc4[nH]3)ccc2n1 |  | > 100 |  | 33.6 |  | > 100 |  | 63.5 |  | > 100 |  | > 100 | 32.9 | 37.2 | 51.7
19 | O=C(CSc1nc2ccccc2c(=O)n1-c1ccccc1)N=Nc1c(O)[nH]c2ccc(Br)cc12 |  | > 100 |  | > 27.9 |  | 4.22 |  |  |  | 4.26 | 10.3 |  | 6.64 | 12.4 | 6.13
20 | Cc1c2ccccc2c(=O)n2c(-c3ccccn3)cccc12 |  | > 100 |  |  |  | > 100 |  | > 100 |  | > 100 | > 100 | > 100 | > 100 | > 100 | > 100
21 | C/C(=N/NC(=S)N1CCCCCC1)c1cccc(/C(C)=N\NC(=S)N2CCCCCC2)n1 |  |  |  | 3.46 |  | 4.57 |  | 2.44 |  | 4.77 | 6.58 | 3.48 | 3.39 | 3.29 | 3.15
22 | C[N+](C)(N)Cc1nc(-c2ccc(Cl)cc2)no1 |  | > 100 |  | > 100 |  | > 100 |  | > 100 |  | > 100 | > 100 | > 100 |  | > 100 | > 100
23 | Cn1c2ccccc2n2c(=O)c(-c3ccc(Cl)cc3)nnc12 |  | > 100 |  | > 100 |  | > 100 |  | > 100 |  | > 100 |  | > 100 | > 100 | > 100 | > 100
